Patent publication US10806785B2, “Immunomodulator compounds and methods of use” (Incyte Corporation, priority 2016, dated 2020)

Molecular target: PD-1/PD-L1 (Homo sapiens (Human), UniProt Q9NZQ7)
Assay: PD-1/PD-L1 binding assay (HTRF)
How it was run: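 Fc-tagged human PD-1 (25-167) and His-tagged PD-L1 (19-238), listed as […] and 10 nM final, preincubated 40 min with inhibitors in PBS pH 7.4, 0.05% Tween-20, 0.1% BSA, 1% DMSO, 25 °C. Eu anti-IgG/APC anti-His added, 60 min, 665/620 nm HTRF ratio; IC50 fitted from percent control activity.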

Sequence of PD-1/PD-L1 (Q9NZQ7 19-238): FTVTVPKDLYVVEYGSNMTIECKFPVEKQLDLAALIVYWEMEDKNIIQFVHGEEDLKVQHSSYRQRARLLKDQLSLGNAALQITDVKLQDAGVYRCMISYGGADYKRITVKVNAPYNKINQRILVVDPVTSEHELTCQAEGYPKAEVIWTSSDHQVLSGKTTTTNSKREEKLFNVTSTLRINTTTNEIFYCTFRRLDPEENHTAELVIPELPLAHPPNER

| IC50 [nM] | Structure (SMILES) |
| --- | --- |
| ≤ 10 | C[C@H](O)CN1CCc2c(nc(C(=O)Nc3cccc(-c4cccc(NC(=O)c5nc6c(n5C)CCN(C)C6)c4C#N)c3Cl)n2C)C1 [Example 39, (S)—N-(2-chloro-2′-cyano-3′-(1,5-dimethyl-4,5,6,7-tetrahydro-1H-imidazo[4,5-c]pyridine-2-carboxamido)biphenyl-3-yl)-5-(2-hydroxypropyl)-1-methyl-4,5,6,7-tetrahydro-1H-imidazo[4,5-c]pyridine-2-carboxamide] |
| ≤ 10 | C[C@@H](O)CN1CCc2c(nc(C(=O)Nc3cccc(-c4cccc(NC(=O)c5nc6c(n5C)CCN(C)C6)c4C#N)c3Cl)n2C)C1 [Example 40, (R)—N-(2-chloro-2′-cyano-3′-(1,5-dimethyl-4,5,6,7-tetrahydro-1H-imidazo[4,5-c]pyridine-2-carboxamido)biphenyl-3-yl)-5-(2-hydroxypropyl)-1-methyl-4,5,6,7-tetrahydro-1H-imidazo[4,5-c]pyridine-2-carboxamide] |
| ≤ 10 | Cc1c(NC(=O)c2nc3c(n2C)CCN(C[C@H](C)O)C3)cccc1-c1cccc(NC(=O)c2nc3c(n2C)CCNC3)c1Cl [Example 41, (S)—N-(2′-chloro-2-methyl-3′-(1-methyl-4,5,6,7-tetrahydro-1H-imidazo[4,5-c]pyridine-2-carboxamido)-[1,1′-biphenyl]-3-yl)-5-(2-hydroxypropyl)-1-methyl-4,5,6,7-tetrahydro-1H-imidazo[4,5-c]pyridine-2-carboxamide] |
| ≤ 10 | Cc1c(NC(=O)c2nc3c(n2C)CCN(C[C@H](C)O)C3)cccc1-c1cccc(NC(=O)c2nc3c(n2C)CCN(CCO)C3)c1Cl [Example 42, (S)—N-(2′-chloro-3′-(5-(2-hydroxyethyl)-1-methyl-4,5,6,7-tetrahydro-1H-imidazo[4,5-c]pyridine-2-carboxamido)-2-methylbiphenyl-3-yl)-5-(2-hydroxypropyl)-1-methyl-4,5,6,7-tetrahydro-1H-imidazo[4,5-c]pyridine-2-carboxamide] |
| ≤ 10 | Cc1c(NC(=O)c2nc3c(n2C)CCN(C[C@H](C)O)C3)cccc1-c1cccc(NC(=O)c2nc3c(n2C)CCN(C2CCOCC2)C3)c1Cl [Example 47, (S)—N-(2′-chloro-2-methyl-3′-(1-methyl-5-(tetrahydro-2H-pyran-4-yl)-4,5,6,7-tetrahydro-1H-imidazo[4,5-c]pyridine-2-carboxamido)biphenyl-3-yl)-5-(2-hydroxypropyl)-1-methyl-4,5,6,7-tetrahydro-1H-imidazo[4,5-c]pyridine-2-carboxamide] |
| ≤ 10 | Cc1c(NC(=O)c2cc(CN3CC[C@@H](O)C3)cn(C)c2=O)cccc1-c1cccc(NC(=O)c2nc3c(n2C)CCN(C[C@H](C)O)C3)c1Cl [Example 51, N-(2-chloro-3′-(5-(((R)-3-hydroxypyrrolidin-1-yl)methyl)-1-methyl-2-oxo-1,2-dihydropyridine-3-carboxamido)-2′-methylbiphenyl-3-yl)-5-((S)-2-hydroxypropyl)-1-methyl-4,5,6,7-tetrahydro-1H-imidazo[4,5-c]pyridine-2-carboxamide] |
| ≤ 10 | Cc1c(NC(=O)c2cc(CN3CCCC3)cn(C)c2=O)cccc1-c1cccc(NC(=O)c2nc3c(n2C)CCN(C[C@H](C)O)C3)c1Cl [Example 52, (S)—N-(2-chloro-2′-methyl-3′-(1-methyl-2-oxo-5-(pyrrolidin-1-ylmethyl)-1,2-dihydropyridine-3-carboxamido)biphenyl-3-yl)-5-(2-hydroxypropyl)-1-methyl-4,5,6,7-tetrahydro-1H-imidazo[4,5-c]pyridine-2-carboxamide] |
| ≤ 10 | Cc1c(COc2cc(OCc3cncc(C#N)c3)c(CN3CCCC[C@H]3C(=O)O)cc2Cl)cccc1-c1cccc(NC(=O)c2nc3c(n2C)CCN(C)C3)c1Cl [Example 54, (S)-1-(5-chloro-4-((2′-chloro-3′-(1,5-dimethyl-4,5,6,7-tetrahydro-1H-imidazo[4,5-c]pyridine-2-carboxamido)-2-methyl-[1,1′-biphenyl]-3-yl)methoxy)-2-((5-cyanopyridin-3-yl)methoxy)benzyl)piperidine-2-carboxylic acid] |

Further lines, the molecule ahead of its results:

| Structure (SMILES) | IC50 [nM] |
| --- | --- |
| CC(=O)N1CCC(N2CCc3c(nc(C(=O)Nc4cccc(-c5cccc(NC(=O)c6nc7c(n6C)CCN(C)C7)c5Cl)c4C)n3C)C2)CC1 [Example 34, 5-(1-acetylpiperidin-4-yl)-N-(2′-chloro-3′-(1,5-dimethyl-4,5,6,7-tetrahydro-1H-imidazo[4,5-c]pyridine-2-carboxamido)-2-methylbiphenyl-3-yl)-1-methyl-4,5,6,7-tetrahydro-1H-imidazo[4,5-c]pyridine-2-carboxamide] | ≤ 10 |
| Cc1c(NC(=O)c2nc3c(n2C)CCN(C2CCC(C)(C(=O)O)CC2)C3)cccc1-c1cccc(NC(=O)c2nc3c(n2C)CCN(C)C3)c1Cl (centres unmarked) [Example 35, 4-(2-(2′-chloro-3′-(1,5-dimethyl-4,5,6,7-tetrahydro-1H-imidazo[4,5-c]pyridine-2-carboxamido)-2-methylbiphenyl-3-ylcarbamoyl)-1-methyl-6,7-dihydro-1H-imidazo[4,5-c]pyridin-5(4H)-yl)-1-methylcyclohexanecarboxylic acid] | ≤ 10 |
| Cc1c(NC(=O)c2nc3c(n2C)CCN(CCCNS(C)(=O)=O)C3)cccc1-c1cccc(NC(=O)c2nc3c(n2C)CCN(C)C3)c1Cl [Example 36, N-(2-chloro-2′-methyl-3′-(1-methyl-5-(3-(methylsulfonamido)propyl)-4,5,6,7-tetrahydro-1H-imidazo[4,5-c]pyridine-2-carboxamido)biphenyl-3-yl)-1,5-dimethyl-4,5,6,7-tetrahydro-1H-imidazo[4,5-c]pyridine-2-carboxamide] | ≤ 10 |
| CN1CCc2c(nc(C(=O)Nc3cccc(-c4cccc(NC(=O)c5nc6c(n5C)CCN(CCO)C6)c4Cl)c3C#N)n2C)C1 [Example 38, N-(2-chloro-2′-cyano-3′-(1,5-dimethyl-4,5,6,7-tetrahydro-1H-imidazo[4,5-c]pyridine-2-carboxamido)biphenyl-3-yl)-5-(2-hydroxyethyl)-1-methyl-4,5,6,7-tetrahydro-1H-imidazo[4,5-c]pyridine-2-carboxamide] | ≤ 10 |
| Cc1c(NC(=O)c2nc3c(n2C)CCN(C[C@H](C)O)C3)cccc1-c1cccc(NC(=O)c2nc3c(n2C)CCN(C2CCN(S(C)(=O)=O)CC2)C3)c1Cl [Example 43, (S)—N-(2′-chloro-2-methyl-3′-(1-methyl-5-(1-(methylsulfonyl)piperidin-4-yl)-4,5,6,7-tetrahydro-1H-imidazo[4,5-c]pyridine-2-carboxamido)biphenyl-3-yl)-5-(2-hydroxypropyl)-1-methyl-4,5,6,7-tetrahydro-1H-imidazo[4,5-c]pyridine-2-carboxamide] | ≤ 10 |
| Cc1c(NC(=O)c2nc3c(n2C)CCN(C[C@H](C)O)C3)cccc1-c1cccc(NC(=O)c2nc3c(n2C)CCN(C2CCC2)C3)c1Cl [Example 44, (S)—N-(2-chloro-3′-(5-(2-hydroxypropyl)-1-methyl-4,5,6,7-tetrahydro-1H-imidazo[4,5-c]pyridine-2-carboxamido)-2′-methylbiphenyl-3-yl)-5-cyclobutyl-1-methyl-4,5,6,7-tetrahydro-1H-imidazo[4,5-c]pyridine-2-carboxamide] | ≤ 10 |
| Cc1c(NC(=O)c2nc3c(n2C)CCN(C[C@H](C)O)C3)cccc1-c1cccc(NC(=O)c2nc3c(n2C)CCN(C(C)C)C3)c1Cl [Example 45, (S)—N-(2-chloro-3′-(5-(2-hydroxypropyl)-1-methyl-4,5,6,7-tetrahydro-1H-imidazo[4,5-c]pyridine-2-carboxamido)-2′-methylbiphenyl-3-yl)-5-isopropyl-1-methyl-4,5,6,7-tetrahydro-1H-imidazo[4,5-c]pyridine-2-carboxamide] | ≤ 10 |
| Cc1c(NC(=O)c2nc3c(n2C)CCN(C[C@H](C)O)C3)cccc1-c1cccc(NC(=O)c2nc3c(n2C)CCN(CC2CC2)C3)c1Cl [Example 46, (S)—N-(2-chloro-3′-(5-(2-hydroxypropyl)-1-methyl-4,5,6,7-tetrahydro-1H-imidazo[4,5-c]pyridine-2-carboxamido)-2′-methylbiphenyl-3-yl)-5-(cyclopropylmethyl)-1-methyl-4,5,6,7-tetrahydro-1H-imidazo[4,5-c]pyridine-2-carboxamide] | ≤ 10 |
| Cc1c(NC(=O)c2cc(CN3CC[C@@H](O)C3)cn(C)c2=O)cccc1-c1cccc(NC(=O)c2nc3c(n2C)CCN(C)C3)c1Cl [Example 48, (R)—N-(2-chloro-3′-(5-((3-hydroxypyrrolidin-1-yl)methyl)-1-methyl-2-oxo-1,2-dihydropyridine-3-carboxamido)-2′-methylbiphenyl-3-yl)-1,5-dimethyl-4,5,6,7-tetrahydro-1H-imidazo[4,5-c]pyridine-2-carboxamide] | ≤ 10 |
| Cc1c(NC(=O)c2cc(CN3CC[C@@H](C(=O)O)C3)cn(C)c2=O)cccc1-c1cccc(NC(=O)c2nc3c(n2C)CCN(C)C3)c1Cl [Example 49, (R)-1-((5-(2′-chloro-3′-(1,5-dimethyl-4,5,6,7-tetrahydro-1H-imidazo[4,5-c]pyridine-2-carboxamido)-2-methylbiphenyl-3-ylcarbamoyl)-1-methyl-6-oxo-1,6-dihydropyridin-3-yl)methyl)pyrrolidine-3-carboxylic acid] | ≤ 10 |
| Cc1c(NC(=O)c2cc(CN3CCCC3)cn(C)c2=O)cccc1-c1cccc(NC(=O)c2nc3c(n2C)CCN(C)C3)c1Cl [Example 50, N-(2-chloro-2′-methyl-3′-(1-methyl-2-oxo-5-(pyrrolidin-1-ylmethyl)-1,2-dihydropyridine-3-carboxamido)biphenyl-3-yl)-1,5-dimethyl-4,5,6,7-tetrahydro-1H-imidazo[4,5-c]pyridine-2-carboxamide] | ≤ 10 |
| Cc1c(-c2nc3c(s2)CN(C(=O)CN(C)C)C3)cccc1-c1cccc(NC(=O)c2nc3c(n2C)CCN(C)C3)c1Cl [Example 53, N-(2-chloro-3′-(5-(2-(dimethylamino)acetyl)-5,6-dihydro-4H-pyrrolo[3,4-d]thiazol-2-yl)-2′-methylbiphenyl-3-yl)-1,5-dimethyl-4,5,6,7-tetrahydro-1H-imidazo[4,5-c]pyridine-2-carboxamide] | ≤ 10 |
